Measurements: US12275734B1, “Pleuromutilin onium salt derivative containing a 3H-imidazo[4,5-c]pyridine side chain, and a preparation method and application thereof” (SHAANXI UNIVERSITY OF SCIENCE AND TECHNOLOGY, priority 2024, dated 2025)

What was measured:
E. coli (ATCC 25922) [1] = assay: Time-kill curve; assay type: cell-based; conditions: 1×MIC to 8×MIC, 0-24 hours
Protocol: Based on the MIC test results, the best performing active compounds were selected for time-kill curve studies.
(2) Sampling: At 0, 2, 4, 6, 8, 12, and 24 hours, aspirate 100 μL of the mixture
(3) Serial dilution and coating: Use 10 mM PBS buffer to dilute 10 times continuously, and evenly coat the diluted liquid on the agar plate
(4) Incubation and counting: Incubate in a 37° C. incubator for 24 hours and count the colonies.
(5) Sterilization curve drawing: Draw the curve of colony count change over time at different compound concentrations, and record the results as shown in FIG. 1.

E. coli (ATCC 25922) [2] = assay: Intracellular and extracellular ATP concentration; assay type: cell-based
Protocol: The intracellular and extracellular ATP levels refer to the concentration of ATP inside and outside the cell. Under normal physiological conditions, ATP is mainly produced inside the cell and released outside the cell when needed. This dynamic change is very important for maintaining normal biological homeostasis.
Determine the intracellular ATP concentration using the ATP assay kit:
Secondly, the bacterial suspension was treated with different concentrations of compound i, and a blank control group was set up. Next, the samples were incubated at 37° C. and the cells were lysed by ultrasound to extract ATP. After that, the supernatant was collected by high-speed centrifugation and ATP detection was performed, which involved adding the detection solution and compound to a 96-well plate and using a reader to measure the light intensity. Finally, data analysis and statistics were performed to evaluate the effects of the compound by comparing the ATP levels of different treatment groups.

MRSA (ATCC 33591) [3] = assay: Biofilm formation, crystal violet staining; assay type: cell-based, S. aureus
Protocol: Quantification of biofilm using crystal violet staining:
MRSA and E. coli cells were first adjusted to the logarithmic growth phase and diluted to […]. […] A blank control group without compound addition was set up. After incubation, the suspension was discarded and washed three times with 10 mM PBS buffer, and the biofilm was fixed with methanol for 15 minutes. After removing the methanol, 200 μL of 0.1% crystal violet was added to each well for staining for 30 minutes, and then the crystal violet was discarded and washed again with PBS three times. After the well plate was dried, 200 μL of 95% ethanol was added to each well to dissolve the fixed dye. […] This process allows for quantitative analysis of the ability of different concentrations of compound i to form biofilms.

MRSA (ATCC 33591) [4] = assay: Bacterial cell morphology by FESEM; assay type: cell-based, S. aureus; conditions: 4 hours
Protocol: (§1) Observation of bacterial cell morphology using FESEM:
(§2) First, the bacterial suspension was adjusted to OD600=0.5, and then the bacteria were treated with compound i at a final concentration of 1×MIC and 4×MIC at 37° C. for 4 hours, and a control group without compound addition was set up. After treatment, the bacteria were collected by high-speed centrifugation at 6000 rpm for 10 minutes and washed three times with 10 mM PBS buffer to remove residual culture medium and drugs. Subsequently, the bacteria were fixed with 2.5% glutaraldehyde at 4° C. for 12 hours to maintain the integrity of the cell structure, and then washed again with PBS buffer three times to remove excess glutaraldehyde.
(§3) Next, the cells were subjected to a series of ethanol dehydration treatments (30%, 50%, 70%, 80%, 90% and 100% ethanol), and the treatment time of each concentration was sufficient to replace the intracellular water. After dehydration, the sample was resuspended in isoamyl acetate for 30 minutes and then centrifuged at 6000 rpm for 10 minutes to remove the supernatant. The sample was then dried and dotted on a stage with conductive glue, gold-plated to enhance the conductivity of the sample, and finally observed using a field emission scanning electron microscope (FESEM) to obtain high-resolution images of bacterial cell morphology and surface morphology. […]

E. coli (ATCC 25922) [5] = assay: Bacterial cell morphology by FESEM; assay type: cell-based; conditions: 4 hours
Protocol: as §1, §2, §3

[6] = test system: Staphylococcus aureus (MRSA, ATCC 33591); assay: Mouse MRSA systemic infection model, survival rate; assay type: in vivo; conditions: MRSA-infected mice, 5, 10, 20 mg/kg single intraperitoneal injection 1 hour after infection, 7-day survival
Protocol: (§4) Establishment of a mouse model of MRSA systemic infection
(1) Solution preparation and bacterial activation: Reference Example 15.
(§5) (2) Pretreatment: All mice received cyclophosphamide treatment, with the first intraperitoneal injection of 150 mg/kg cyclophosphamide 4 days before infection and the second intraperitoneal injection of 100 mg/kg cyclophosphamide 1 day before infection.
(3) Control group treatment: Mice in the blank control group received intraperitoneal injection of 0.9% saline.
(4) Infection process: Mice were anesthetized with isoflurane and infected by intraperitoneal injection of Staphylococcus aureus (MRSA, ATCC 33591) at a concentration of 10^7 CFU/mL.
(1) Experimental groups: The doses of compound i and valnemulin were 5, 10, and 20 mg/kg, respectively (the solvent was dimethyl sulfoxide: Tween-80: sterile water=1:0.5:9.5);
A model control group (administered with a solvent after infection with bacteria) and a blank control group (administered with a solvent only without infection with bacteria) were set up, with 10 mice in each group, half of which were male and half were female.
(2) Time point: Intraperitoneal injection was performed in the experimental group mice at 1 hour after infection.
(3) Therapeutic dose: The mice in the experimental groups received intraperitoneal injection of 0.5 mL of compound i and valnemulin at different concentrations. […]

[7] = test system: Staphylococcus aureus (MRSA, ATCC 33591); assay: Mouse MRSA systemic infection model, H&E tissue sections; assay type: in vivo; conditions: MRSA-infected mice
Protocol: as §4, §5
(4) Infection process: Mice were anesthetized with isoflurane and infected by intraperitoneal injection of Staphylococcus aureus (MRSA, ATCC 33591) at a concentration of 10^7 CFU/mL. […]
(2) Processing: • (a) Time point: At the first hour after infection, mice in the experimental group received intraperitoneal injection of 0.5 mL of compounds of different concentrations, while mice in the control group received the same volume of solvent. • (b) Treatment time: […]
Part II: The samples were fixed with 10% formalin buffer, then embedded in paraffin and sectioned. The sections were stained with hematoxylin and eosin (H&E) and then examined under an optical microscope.

[8] = 5 mg/kg compound i, intraperitoneal

C=C[C@]1(C)C[C@@H](OC(=O)CSc2nc3cc[n+](Cc4ccc(C)cc4)cc3[nH]2)[C@]2(C)[C@H](C)CC[C@]3(CCC(=O)[C@H]32)[C@@H](C)[C@@H]1O [Compound i, 5-(4-methylbenzyl)-2-((2-(((3aR,4R,5R,7S,8S,9R,9aS,12R)-8-hydroxy-4,7,9,12-tetramethyl-3-oxo-7-vinyldecahydro-4,9a-propancyclopenta[8]cyclo-5-yl)oxy)-2-oxoethyl)thio)-3H-imidazo[4,5-C]pyridine-5-ium]
bactericidal efficiency (time-kill curve) compared with retapamulin (E. coli (ATCC 25922) [1]): higher bactericidal efficiency
extracellular fluorescence intensity (ATP) increased by (E. coli (ATCC 25922) [2]; 1×MIC): 4.34 times
intracellular fluorescence intensity (ATP) decreased by (E. coli (ATCC 25922) [2]; 1×MIC): 50.75%
extracellular fluorescence intensity (ATP) increased by (E. coli (ATCC 25922) [2]; 2×MIC): 5.35 times
intracellular fluorescence intensity (ATP) decreased by (E. coli (ATCC 25922) [2]; 2×MIC): 67.87%
inhibition rate of biofilm formation (MRSA (ATCC 33591) [3]; 1×MIC): 51.33%
inhibition rate of biofilm formation (MRSA (ATCC 33591) [3]; 8×MIC): 86.68%
bacterial cell morphology (FESEM) (MRSA (ATCC 33591) [4]; 1×MIC): showed an irregular shape
bacterial cell morphology (FESEM) (MRSA (ATCC 33591) [4]; 4×MIC): obvious shrinkage or deformation
bacterial cell morphology (FESEM) (E. coli (ATCC 25922) [5]; 1×MIC): depressions on the bacterial surface were observed
bacterial cell morphology (FESEM) (E. coli (ATCC 25922) [5]; 4×MIC): obvious wrinkles and shrinkage on the bacterial surface
survival rate of mice [6]: significantly higher than the survival rate of mice given warnemulin
kidney H&E histology [7, 8]: returned to a normal state
lung H&E histology [7, 8]: no obvious pathological changes
spleen H&E histology ([7]; 5 mg/kg, after 7 days of treatment): immune response was weakened
